Experimental findings from patent US10206394B2, “Herbicidal compounds” (Syngenta Participations AG, priority 2014, dated 2019) are described below.

What all share (experiment): Glasshouse assay for herbicidal activity (pre- and post-emergence), percentage phytotoxicity
Common to all, as to assay type: in vivo

Assay [1] deals with Alopecurus myosuroides (ALOMY). As to conditions: Alopecurus myosuroides. A digest of the protocol: (§1)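 Visually rated damage, 0–100%. PRE spray 1 d after sowing, scored 20 DAA; POST spray ~12 d, scored 15 DAA. Glasshouse at 65% humidity, 16 h day.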
The next assay concerns Avena fatua (AVEFA). Conditions: Avena fatua. A digest of the protocol:
as §1

Assay [2] deals with Echinochloa crus-galli (ECHCG). As to conditions: Echinochloa crus-galli. Summed up:
as §1

Another assay relates to Lolium perenne (LOLPE). Conditions: Lolium perenne. Summed up: as §1
[3] abbreviates: post-emergence, 360 h, post-emergence, 250 g/ha, 15 DAA, visual score (100%=total damage; 0%=no damage), read-out: ALOMY POST herbicidal activity (percentage phytotoxicity).
Setting [4] is: pre-emergence, 480 h, pre-emergence, 250 g/ha, 20 DAA, visual score (100%=total damage; 0%=no damage), read-out: ALOMY PRE herbicidal activity (percentage phytotoxicity).
Where [5] appears, read: post-emergence, 360 h, post-emergence, 250 g/ha, 15 DAA, visual score (100%=total damage; 0%=no damage), read-out: AVEFA POST herbicidal activity (percentage phytotoxicity).
Where [6] appears, read: pre-emergence, 480 h, pre-emergence, 250 g/ha, 20 DAA, visual score (100%=total damage; 0%=no damage), read-out: AVEFA PRE herbicidal activity (percentage phytotoxicity).
[7] abbreviates: post-emergence, 360 h, post-emergence, 250 g/ha, 15 DAA, visual score (100%=total damage; 0%=no damage), read-out: ECHCG POST herbicidal activity (percentage phytotoxicity).
The mark [8] stands for this setting: pre-emergence, 480 h, pre-emergence, 250 g/ha, 20 DAA, visual score (100%=total damage; 0%=no damage), read-out: ECHCG PRE herbicidal activity (percentage phytotoxicity).
The mark [9] stands for this setting: post-emergence, 360 h, post-emergence, 250 g/ha, 15 DAA, visual score (100%=total damage; 0%=no damage), read-out: LOLPE POST herbicidal activity (percentage phytotoxicity).
Where [10] appears, read: pre-emergence, 480 h, pre-emergence, 250 g/ha, 20 DAA, visual score (100%=total damage; 0%=no damage), read-out: LOLPE PRE herbicidal activity (percentage phytotoxicity).

Read-outs that look alike come from different tables or passages of the source.

`Cc1cc(C)c(C2C(=O)CC(C(C)C(=O)NCc3ncccc3Cl)C2=O)c(C)c1` (centres unmarked) [Compound A167]: the pest or weed control at 250 g/ha was 20% in assay [1] (post-emergence, 360 h, Rate 250 g/ha, post-emergence, assessed visually 15 DAA, 100%=total damage, 0%=no damage, read-out: Post-emergence herbicidal activity (percentage phytotoxicity) ALOMY POST); 20% in assay [1] (pre-emergence, 480 h, Rate 250 g/ha, pre-emergence, assessed visually 20 DAA, 100%=total damage, 0%=no damage, read-out: Pre-emergence herbicidal activity (percentage phytotoxicity) ALOMY PRE); 70% with Avena fatua (AVEFA) (post-emergence, 360 h, Rate 250 g/ha, post-emergence, assessed visually 15 DAA, 100%=total damage, 0%=no damage, read-out: Post-emergence herbicidal activity (percentage phytotoxicity) AVEFA POST); 10% in the assay with Avena fatua (AVEFA) (pre-emergence, 480 h, Rate 250 g/ha, pre-emergence, assessed visually 20 DAA, 100%=total damage, 0%=no damage, read-out: Pre-emergence herbicidal activity (percentage phytotoxicity) AVEFA PRE); 80% in assay [2] (post-emergence, 360 h, Rate 250 g/ha, post-emergence, assessed visually 15 DAA, 100%=total damage, 0%=no damage, read-out: Post-emergence herbicidal activity (percentage phytotoxicity) ECHCG POST); 80% in assay [2] (pre-emergence, 480 h, Rate 250 g/ha, pre-emergence, assessed visually 20 DAA, 100%=total damage, 0%=no damage, read-out: Pre-emergence herbicidal activity (percentage phytotoxicity) ECHCG PRE). The pest or weed control at 250 g/ha came to 60% in the assay on Lolium perenne (LOLPE) (post-emergence, 360 h, Rate 250 g/ha, post-emergence, assessed visually 15 DAA, 100%=total damage, 0%=no damage, read-out: Post-emergence herbicidal activity (percentage phytotoxicity) LOLPE POST) and 80% with Lolium perenne (LOLPE) (pre-emergence, 480 h, Rate 250 g/ha, pre-emergence, assessed visually 20 DAA, 100%=total damage, 0%=no damage, read-out: Pre-emergence herbicidal activity (percentage phytotoxicity) LOLPE PRE).
On to `Cc1cc(-c2ncc(Cl)cc2Cl)cc(C)c1C1C(=O)CC(CC(=O)NC(C)(C)C)C1=O` (centres unmarked) [Compound A168], for which the pest or weed control at 250 g/ha in assay [1] (setting [3]) was 90%; in assay [1] (setting [4]), 80%; in the assay on Avena fatua (AVEFA) (setting [5]), 90%; with Avena fatua (AVEFA) (setting [6]) it was 20%; in assay [2] (setting [7]), 100%; in assay [2] (setting [8]) it was 80%. Further, the values for the pest or weed control at 250 g/ha in the assay with Lolium perenne (LOLPE) (setting [9]) and with Lolium perenne (LOLPE) (setting [10]) were 100% and 80%, respectively.
Take `CCCN(CC)C(=O)CC1CC(=O)C(c2c(C)cc(C)cc2C)C1=O` (centres unmarked) [Compound A171]: the pest or weed control at 250 g/ha in assay [1] (setting [3]) is 70%; in assay [1] (setting [4]), 60%; with Avena fatua (AVEFA) (setting [5]), 70%; in the assay on Avena fatua (AVEFA) (setting [6]) it was 20%; in assay [2] (setting [7]) it was 70%; in assay [2] (setting [8]), 80%. Moreover, the pest or weed control at 250 g/ha with Lolium perenne (LOLPE) (setting [9]) is 80%; in the assay with Lolium perenne (LOLPE) (setting [10]), 70%.
Consider `Cc1cc(C)c(C2C(=O)CC(CC(=O)N3CCC(C)CC3)C2=O)c(C)c1` (centres unmarked) [Compound A172], for which the pest or weed control at 250 g/ha is 80% in assay [1] (setting [3]); 80% in assay [1] (setting [4]); 70% in the assay with Avena fatua (AVEFA) (setting [5]); 40% with Avena fatua (AVEFA) (setting [6]); 70% in assay [2] (setting [7]); 80% in assay [2] (setting [8]). The results for the pest or weed control at 250 g/ha in the assay with Lolium perenne (LOLPE) (setting [9]) and with Lolium perenne (LOLPE) (setting [10]) were 60% and 90%, respectively.
As to `Cc1cc(C)c(C2C(=O)CC(CC(=O)N3CC(C)CC(C)C3)C2=O)c(C)c1` (centres unmarked) [Compound A173], the pest or weed control at 250 g/ha in assay [1] (setting [3]) came out at 20%; in assay [1] (setting [4]), 50%; with Avena fatua (AVEFA) (setting [5]), 30%; in the assay with Avena fatua (AVEFA) (setting [6]), 10%; in assay [2] (setting [7]) it was 30%; in assay [2] (setting [8]) it was 10%. Also, the values for the pest or weed control at 250 g/ha in the assay with Lolium perenne (LOLPE) (setting [9]) and in the assay on Lolium perenne (LOLPE) (setting [10]) were 60% and 80%, respectively.
On to `Cc1cc(C)c(C2C(=O)CC(CC(=O)NCC3CSC3)C2=O)c(C)c1` (centres unmarked) [Compound A174], for which the pest or weed control at 250 g/ha in assay [1] (setting [3]) was found to be 40%; with Avena fatua (AVEFA) (setting [5]), 0%; in assay [2] (setting [7]) it was 10%; in the assay on Lolium perenne (LOLPE) (setting [9]), 0%.
On to `C=CCNC(=O)CC1CC(=O)C(c2c(C)cc(C)cc2C)C1=O` (centres unmarked) [Compound A175], for which the pest or weed control at 250 g/ha was found to be 80% in assay [1] (setting [3]); 80% in assay [1] (setting [4]); 90% in the assay with Avena fatua (AVEFA) (setting [5]); 70% in the assay on Avena fatua (AVEFA) (setting [6]); 90% in assay [2] (setting [7]); 90% in assay [2] (setting [8]). The values for the pest or weed control at 250 g/ha in the assay with Lolium perenne (LOLPE) (setting [9]) and in the assay on Lolium perenne (LOLPE) (setting [10]) were 90% and 100%, respectively.
Regarding `COCCCNC(=O)CC1CC(=O)C(c2c(C)cc(C)cc2C)C1=O` (centres unmarked) [Compound A176], the pest or weed control at 250 g/ha in assay [1] (setting [3]) came out at 90%; in assay [1] (setting [4]), 90%; in the assay on Avena fatua (AVEFA) (setting [5]) it was 90%; in the assay on Avena fatua (AVEFA) (setting [6]), 90%; in assay [2] (setting [7]), 100%; in assay [2] (setting [8]), 100%. Also, the pest or weed control at 250 g/ha with Lolium perenne (LOLPE) (setting [9]) and in the assay with Lolium perenne (LOLPE) (setting [10]) was 100% throughout.
Regarding `CCCCCNC(=O)CC1CC(=O)C(c2c(C)cc(C)cc2C)C1=O` (centres unmarked) [Compound A177], the pest or weed control at 250 g/ha in assay [1] (setting [3]) amounted to 80%; in assay [1] (setting [4]), 100%; with Avena fatua (AVEFA) (setting [5]), 80%; in the assay on Avena fatua (AVEFA) (setting [6]) it was 60%; in assay [2] (setting [7]) it was 90%; in assay [2] (setting [8]), 90%. Besides, the pest or weed control at 250 g/ha was 80% in the assay with Lolium perenne (LOLPE) (setting [9]) and 100% in the assay on Lolium perenne (LOLPE) (setting [10]).
With `CCCCCCCNC(=O)CC1CC(=O)C(c2c(C)cc(C)cc2C)C1=O` (centres unmarked) [Compound A178], the pest or weed control at 250 g/ha in assay [1] (setting [3]) amounted to 70%; in assay [1] (setting [4]), 20%; with Avena fatua (AVEFA) (setting [5]), 70%; in the assay with Avena fatua (AVEFA) (setting [6]), 0%; in assay [2] (setting [7]), 40%; in assay [2] (setting [8]), 80%. Further, the pest or weed control at 250 g/ha in the assay on Lolium perenne (LOLPE) (setting [9]) was 70%; in the assay with Lolium perenne (LOLPE) (setting [10]) it was 80%.
`COCCOCCCNC(=O)CC1CC(=O)C(c2c(C)cc(C)cc2C)C1=O` (centres unmarked) [Compound A179]: the pest or weed control at 250 g/ha in assay [1] (setting [3]) was 100%; in assay [1] (setting [4]), 100%; in the assay with Avena fatua (AVEFA) (setting [5]), 100%; with Avena fatua (AVEFA) (setting [6]), 90%; in assay [2] (setting [7]) it was 100%; in assay [2] (setting [8]) it was 80%. The pest or weed control at 250 g/ha was determined as 80% in the assay on Lolium perenne (LOLPE) (setting [9]) and 90% in the assay with Lolium perenne (LOLPE) (setting [10]).
In the case of `Cc1cc(C)c(C2C(=O)CC(CC(=O)NCC3(F)COC3)C2=O)c(C)c1` (centres unmarked) [Compound A180], the pest or weed control at 250 g/ha worked out at 70% in assay [1] (setting [3]); 40% in assay [1] (setting [4]); 70% with Avena fatua (AVEFA) (setting [5]); 0% with Avena fatua (AVEFA) (setting [6]); 70% in assay [2] (setting [7]); 20% in assay [2] (setting [8]). The pest or weed control at 250 g/ha in the assay with Lolium perenne (LOLPE) (setting [9]) came out at 30%; in the assay on Lolium perenne (LOLPE) (setting [10]) it was 0%.
As for `Cc1cc(C)c(C2C(=O)CC(CC(=O)NC3CC(F)C3)C2=O)c(C)c1` (centres unmarked) [Compound A181], the pest or weed control at 250 g/ha in assay [1] (setting [3]) is 90%; in assay [1] (setting [4]) it was 90%; in the assay with Avena fatua (AVEFA) (setting [5]) it was 90%; in the assay on Avena fatua (AVEFA) (setting [6]), 90%; in assay [2] (setting [7]), 80%; in assay [2] (setting [8]) it was 90%. Also, the pest or weed control at 250 g/ha with Lolium perenne (LOLPE) (setting [9]) and in the assay with Lolium perenne (LOLPE) (setting [10]) was 100% in each case.
In the case of `Cc1cc(C)c(C2C(=O)CC(CC(=O)NC3COC3)C2=O)c(C)c1` (centres unmarked) [Compound A182], the pest or weed control at 250 g/ha in assay [1] (setting [3]) is 70%; in assay [1] (setting [4]), 70%; in the assay on Avena fatua (AVEFA) (setting [5]), 70%; in the assay on Avena fatua (AVEFA) (setting [6]), 20%; in assay [2] (setting [7]), 80%; in assay [2] (setting [8]) it was 0%. Moreover, the figures for the pest or weed control at 250 g/ha in the assay on Lolium perenne (LOLPE) (setting [9]) and in the assay on Lolium perenne (LOLPE) (setting [10]) were 40% and 70%, respectively.
Take `Cc1cc(C)c(C2C(=O)CC(CC(=O)NCC3CCC3)C2=O)c(C)c1` (centres unmarked) [Compound A184]: the pest or weed control at 250 g/ha in assay [1] (setting [3]) turned out to be 90%; in assay [1] (setting [4]) it was 90%; in the assay on Avena fatua (AVEFA) (setting [5]), 70%; with Avena fatua (AVEFA) (setting [6]), 0%; in assay [2] (setting [7]), 90%; in assay [2] (setting [8]), 90%. Moreover, the figures for the pest or weed control at 250 g/ha with Lolium perenne (LOLPE) (setting [9]) and in the assay with Lolium perenne (LOLPE) (setting [10]) were 80% and 90%, respectively.
